Laboratory results from patent US11851459B2, “Methods and uses of modulators of anaphase promoting complex (APC) activity for treating cancer” (University of Saskatchewan, priority 2018, dated 2023).
“Also recorded” adds a separate entry of the source.

Columns and labels:
[1] = system: APC (substrates Cyclin B, Securin, Cdc20, HURP); assay: APC substrate westerns in MDA-MB-231 cells expressing peptides; type: cell-based, human; details: for levels of the APC substrate CDC20: MDA-MB-231 stably expressing peptides; for levels of the APC substrate HURP: MDA-MB-231 stably transfected, normalized to tubulin
Description: (§1) A. Transient transfection of the C43-4 peptide plasmid into human triple negative MDA-MB-231 breast cancer cells followed by Western blot analysis of lysates against Cyclin B, Securin and Cdc20 showing enhanced protein loss. B. Cells in A were treated with DOX (1 uM) for 48 hrs with cell viability measured using an MTT assay kit. The experiment was done in triplicate with standard error of the means shown.
(§2) A. Stable integration of C43-4 in MDA-MB-231 cells was established by selection of transfected cells on Geneticin for 7 days. Westerns against APC substrates show APC activation. B. Cells in A were treated with DOX (1 uM) for 48 hrs with cell viability measured using an MTT assay kit. Mean and SEM of 3 biological repeats.
(§3) A. TNBC MDA-MB-231 cells stably expressing APC binding peptides activate the APC. Cells were grown to confluence and then used to prepare protein lysates. The lysates were used to measure levels of the APC substrate CDC20, which will be reduced if the APC is activated. Cells stably expressing the pcDNA empty vector were used as a control. B. In a similar experiment, MDA-MB-231 cells stably expressing the APC binding peptides shown, or the empty vector control, were used to measure protein levels of the APC substrate HURP using Westerns. C. Triplicate blots as in B were scanned, normalized to tubulin and plotted. Error of the mean is shown. Significant changes are indicated. D. MDA-MB-231 cells stably expressing the empty pcDNA vector, or the C43-4 and C13-3 APC binding peptides, were treated with 1 μM Doxorubicin for 24 hrs. Cell viability was measured using an MTT viability assay.
The C43-4 peptide sequence was cloned into the human expression vector pcDNA. This construct was transiently, and stably, expressed in human breast cancer cell line MDA-MB-231. […] In 231 cells, which are triple negative, aggressive and somewhat resistant to Doxorubicin, the transiently and stably transfected C43-4 peptide resensitized them to DOX treatment (FIGS. 22B and 23B).
(§4) In FIG. 26B, MDA-MB-231 cells were also stably transfected with the peptides C1-8, C2-4B, C3-1B, and C9-5. Levels of the APC substrate HURP were measured in lysates prepared from these cells. […] The empty vector pcDNA was also stably expressed in 231 cells and used as a control.

[2] = target: T1, Apc10 (Saccharomyces cerevisiae, UniProt P53068); assay: Yeast 2-hybrid (Y2H) assay, Apc10 bait; type: binding
T1 construct: expressed in transfected cells; host or cells: yeast Y2H cells
T1 sequence (P53068 1-250): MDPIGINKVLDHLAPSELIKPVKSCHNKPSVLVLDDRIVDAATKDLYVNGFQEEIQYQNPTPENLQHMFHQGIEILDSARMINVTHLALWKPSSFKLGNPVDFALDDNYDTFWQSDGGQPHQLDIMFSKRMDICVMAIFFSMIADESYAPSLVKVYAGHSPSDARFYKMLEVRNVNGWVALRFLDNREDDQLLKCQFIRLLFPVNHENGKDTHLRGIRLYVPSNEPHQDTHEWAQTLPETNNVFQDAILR
Description: (§5) The reverse genetic screen utilized a yeast 2-hybrid (Y2H) protocol that selected for peptides that bound to the APC subunits Apc5 or Apc10 (see FIG. 8 for APC structure), to assess whether peptide-binding might modify APC function. Peptides that bound APC subunits were then assayed for those that suppressed APC mutant defects.
A library of random small peptides were cloned into a Thioredoxin (Trx) scaffold (see FIG. 9 for Trx-peptide structure) and expressed from a galactose-inducible Y2H prey vector in cells expressing the Apc10 bait vector (the modified Apc10 is still part of the complete APC complex). Six peptides that reproducibly interacted with the Apc10 bait construct in Y2H assays were identified (FIG. 1A) and were examined further. Cells will only grow in this assay if the peptide interacts with Apc5 or Apc10.
(§6) To identify peptides that bound to either Apc5 or Apc10 proteins using a yeast 2-hybrid (Y2H) screen, random small peptides were cloned into the TrxA scaffold (library provided by R. Geyer; FIG. 9) and expressed from a galactose-inducible Y2H prey vector in cells harboring either the APC5 or APC10 genes cloned into the Y2H bait vectors (APC5/APC10 bait constructs complement APC mutant defects).
(§7) Over 100 peptides that bound either Apc5 or Apc10 were recovered from millions screened. Six peptides that reproducibly interacted with the Apc5 or Apc10 bait construct in Y2H assays were examined further. Vectors expressing these 6 peptides were transformed into WT or APC mutant cells and assessed for ts growth.

[3] = system: apc5 temperature sensitive mutant and/or apc10Δ mutant; assay: Viability of APC mutant yeast (spot dilution); type: cell-based
Source text: Suitable APC activators also include APC activators that increase the cell viability of an wild-type and/or an APC mutant cell by at least 10%, at least 20%, at least 30%, at least 40%, at least 50%, at least 60%, at least 70% or at least 80% compared to a cell with wild-type APC function. […] Examples of yeast cells with defective APC function include apc5 and apc10 mutants. An example of an apc5 mutant is the apc5 temperature sensitive mutant described herein. An example of an apc10 mutant is the apc10 deletion mutant described herein. Viability of a yeast mutant can be measured for example, by the spot dilution assays described herein or any other method known in the art.
as §5, §7

[4] = system: apc5^CA temperature sensitive mutant; assay: Forward genetic screen, rescue of apc5^CA ts growth; type: cell-based, yeast; details: restrictive temperature
Source text: Using a forward genetic screen to test whether temperature sensitive (ts) APC mutants expressing random small peptides could grow at restrictive temperatures, millions of small peptides were rapidly screened for those that could restore mutant APC phenotypes. Peptides that rescued the apc5^CA ts (temperature sensitive) defect were recovered including peptides Y65 and Y36.
In the forward screens, with galactose-inducible TrxA-based peptide libraries, in cells harboring the apc5^CA ts allele, over 200 peptides (from millions screened) suppressed the ts phenotype. Several recovered plasmids were sequenced.

[5] = system: APC; assay: Yeast 2-hybrid assay for binding the APC
Description: as §5, §6

[6] = target: T2, Cin5 (Saccharomyces cerevisiae, UniProt P40917); assay: Yeast 2-hybrid with Y65 as bait to identify binding partners
T2 construct: expressed in transfected cells; host or cells: yeast Y2H cells
T2 sequence (P40917 1-295): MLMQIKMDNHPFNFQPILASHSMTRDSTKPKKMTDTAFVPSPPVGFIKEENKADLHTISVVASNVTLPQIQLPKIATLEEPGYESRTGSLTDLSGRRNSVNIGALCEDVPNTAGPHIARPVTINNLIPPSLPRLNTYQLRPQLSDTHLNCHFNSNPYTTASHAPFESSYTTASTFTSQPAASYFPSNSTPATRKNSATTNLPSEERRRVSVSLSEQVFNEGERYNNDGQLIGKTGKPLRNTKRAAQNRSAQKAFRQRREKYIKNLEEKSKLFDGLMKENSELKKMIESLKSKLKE
Source text: One peptide in particular, Y65, was of interest because it had homology to Elongin C (Elc1; Y65 is 20 amino acids in length, with a 7 residue stretch sharing 86% identity and 100% similarity with Elc1). Elc1 is a ubiquitin-protein ligase (E3) conserved among eukaryotes that is involved in DNA repair (Harreman et al, 2009; Ribar et al, 2007). To identify what the peptides bound in order to modify APC activity, Y65 was cloned into the Y2H bait vector and used to identify binding partners.

[7] = target: T3, Apc5 (Saccharomyces cerevisiae, UniProt Q08683); assay: Yeast 2-hybrid (Y2H) assay, Apc5 bait; type: binding
T3 construct: expressed in transfected cells; host or cells: yeast Y2H cells
T3 sequence (Q08683 1-685): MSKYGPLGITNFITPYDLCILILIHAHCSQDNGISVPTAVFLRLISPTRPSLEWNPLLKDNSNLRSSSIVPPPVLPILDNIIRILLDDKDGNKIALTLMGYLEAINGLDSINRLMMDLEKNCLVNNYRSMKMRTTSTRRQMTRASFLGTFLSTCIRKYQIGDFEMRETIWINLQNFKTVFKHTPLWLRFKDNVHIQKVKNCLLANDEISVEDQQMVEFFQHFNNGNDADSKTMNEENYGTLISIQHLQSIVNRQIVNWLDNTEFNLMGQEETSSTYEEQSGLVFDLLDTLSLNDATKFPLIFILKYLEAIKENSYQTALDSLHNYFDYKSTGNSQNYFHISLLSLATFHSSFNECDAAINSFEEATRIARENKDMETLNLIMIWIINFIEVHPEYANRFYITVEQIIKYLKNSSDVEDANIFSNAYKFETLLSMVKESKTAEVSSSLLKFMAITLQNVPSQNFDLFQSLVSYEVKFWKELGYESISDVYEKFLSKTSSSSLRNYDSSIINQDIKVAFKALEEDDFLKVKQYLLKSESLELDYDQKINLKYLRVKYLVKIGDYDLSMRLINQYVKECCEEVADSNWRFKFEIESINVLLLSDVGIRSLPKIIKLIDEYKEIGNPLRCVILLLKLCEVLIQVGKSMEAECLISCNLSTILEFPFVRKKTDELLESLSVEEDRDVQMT
Description: as §5, §6, §7

[8] = system: MDA-MB-231 cells; assay: Scratch assay, migration of MDA-MB-231 cells; type: cell-based, human
Description: A. An equal number of MDA-MB-231 TNBC cells were grown to confluence in 6 well plates. The cells were then treated with increasing doses of metformin (0, 1, 5 and 10 mM) and a scratch was made in the cell lawn creating a void. At the times shown the number of cell that migrated into the void were counted. The experiment was repeated twice. B. WT MDA-MB-231 cells and cells stably expressing the C43-4 plasmid were grown as in A. Control cells were left untreated, with other cells treated with the DMSO control, 1 uM DOX or 2.5 uM M2I-1. A void was created in the cell lawn and the number of cells that entered the void were scored as above. This experiment was repeated 4 times. This experiment was also repeated 4 times in an independently generated stable C43-4 cell line with similar results. The error of the mean is shown. C. WT and MDA-MB-231 cells stably expressing the C2-4B peptide plasmid were used for the scratch assay as described above. D. WT and MDA-MB-231 cells stably expressing the C13-3 peptide plasmid were used for the scratch assay as described above. The experiments in C and D were only performed once.
Assays using WT and C43-4 expressing cells have been done 4 times. Assays using C13-3 and C2-4B cells have only been conducted once. Metformin treated cells have been used twice. For scratch assays, a scratch is made down a confluent plate of cells, leaving a void. The number of cells that migrate back into the void over time is determined.

[9] = system: MDA-MB-231 cells; assay: DOX sensitivity, MTT viability assay, MDA-MB-231 cells expressing peptides; type: cell-based, human; details: stably transfected, 1 uM Doxorubicin 24 hours
Description: as §1, §2, §3, §4

| Compound | binds Apc10 in a yeast 2 hybrid assay [2] | viability of an APC mutant [3] | levels of the APC substrate HURP [1] | binds Apc5 in a yeast 2 hybrid assay [7] | further results |
| --- | --- | --- | --- | --- | --- |
| PSYNTIKYHETHGGRHPRRQRKRPI [C3-1] | Binds Apc10 | increases the viability of an APC mutant |  |  | levels of the APC substrate CDC20 [1]: reduce levels |
| VRQKSDKEYERVLGLGLRRL [Y65] |  |  |  |  | apc5^CA temperature sensitive (ts) growth / viability [4]: increases the viability; also recorded: rescued; also recorded: Rescues apc5^CA temperature; bind the APC in a yeast 2HY assay [5]: not bind the APC in a yeast; Interacts with Cin5 in a yeast 2 hybrid assay [6]: One peptide binding partner was isolated, Cin5 |
| FCL (FLC) [C1-8] |  |  | did not reduce |  |  |
| GALKEVCICIVESVGGEVFS [C13-3] |  | increases the viability of an APC mutant |  | Binds Apc5 | levels of the APC substrate CDC20 [1]: reduce levels; metastatic potential / in vitro migration [8]: inhibit the in vitro migration; synergy with Doxorubicin (killing effect) [9]: synergize |
| RRCLSIRTENLAWEGKFLRV [C50-1] | Binds Apc10 | increases the viability of an APC mutant |  |  |  |
| COc1cccc2c1C(=O)c1c(O)c3c(c(O)c1C2=O)C[C@@](O)(C(=O)CO)C[C@@H]3O[C@H]1C[C@H](N)[C@H](O)[C@H](C)O1 [Doxorubicin, reference compound] |  |  |  |  | metastatic potential / in vitro migration [8]: blocked |
| SWLNGSGGVVLWLFSNFCCG [Y36] |  |  |  |  | apc5^CA temperature sensitive (ts) growth / viability [4]: increases the viability; also recorded: rescued; also recorded: Rescues apc5^CA temperature; bind the APC in a yeast 2HY assay [5]: not bind the APC in a yeast |
| SKWTWRMCMSWTVDRFAPVPWP [C24-1] |  | increases the viability of an APC mutant |  | Binds Apc5 |  |
| PVNGERWAP [C3-1B] | Binds Apc10 |  | Only C1-8 did not reduce HURP levels |  |  |
| CECLETETFHPITRHLIVPV [C9-5] |  | increases the viability of an APC mutant | Only C1-8 did not reduce HURP levels | Binds Apc5 |  |
